Test results taken from patent US20110166156A1, “Prodrugs for the Treatment of Schizophrenia and Bipolar Disease” (Alkermes, Inc., priority 2010, published 2011).

Assay: Pharmacokinetic evaluation of paliperidone prodrugs in rats, intramuscular administration (Study 1 and Study 2)
Type: in vivo, Sprague-Dawley rats
Conditions: male rats, IM, milled crystalline suspension, plasma by LC-MS/MS; for Cmax: combined Study 1 and Study 2, compared in The FIGURE with the other prodrugs tested; for Tmax: combined Study 1 and Study 2, shown in The FIGURE
Method: Two PK studies were conducted using intramuscular (IM) administration in rats of water-insoluble paliperidone prodrugs and the results were combined in The FIGURE.
Animals: 18 Male Sprague-Dawley rats (Charles River Laboratories, Wilmington, Mass.) were used in the study. Three groups of 6 rats were used and are referred to in this study as Groups A, B and C. Rats were approximately 350-375 g at time of arrival. Rats are housed 2 per cage with ad libitum chow and water. Environmental conditions in the housing room: 64-67° F., 30% to 70% relative humidity, and 12:12-h light:dark cycle. All experiments were approved by the institutional animal care and use committee.
Pharmacokinetics study: Rats were dosed IM by means of a 23 gauge, 1 inch needle with 1 cc syringe 0.3 mL suspension was withdrawn from the vial containing the test compound in suspension. The rat was injected in the muscles of the hind limb after anesthesia with isoflurane. Blood samples were collected via a lateral tail vein after brief anesthesia with Isoflurane. A 27½ G needle and 1 cc syringe without an anticoagulant was used for the blood collection. Approximately 35 0 μL of whole blood was collected at each sampling time point of 6 hours, 24 hours and 2, 5, 7, 9, 12, 14, 21, 28, 35 days after administration. Once collected, whole blood was immediately transferred to tubes containing K2 EDTA, inverted 10-15 times and immediately placed on ice. The tubes were centrifuged for 2 minutes at >14,000 g's (11500 RPMs using Eppendorf Centrifuge 5417C, F45-30-11 rotor) at room temperature to separate plasma. Plasma samples were transferred to labeled plain tubes (MICROTAINER®) and stored frozen at <−70° C.
(§1) Data Analysis: Drug concentrations in plasma samples were analyzed by liquid chromatography-mass spectroscopy (LC-MS/MS) using appropriate parameters for each compound. Half-life of Paliperidone, maximal concentration (Cmax), time to maximal concentration (Tmax), and AUC were calculated by using WinNonlin version 5.2 software (Pharsight, St. Louis, Mo.).
Pharmacokinetics study: Rats were dosed IM by means of a 23 gauge, 1 in. needle with 1 cc syringe 0.3 mL suspension was withdrawn from the vial containing the test compound in suspension. The rat was injected in the muscles of the hind limb after anesthesia with isoflurane. Blood samples were collected via a lateral tail vein after brief anesthesia with Isoflurane. […]
as §1, with “Half-life,” for “Half-life of Paliperidone,”, “concentration,” for “concentration (Cmax),”, “concentration” for “concentration (Tmax),”, “Mo.). […]” for “Mo.).”

Row | Cmax | Tmax | SMILES
1 | lower than that of the other compounds | delayed | CCCCCCCCCCCCCCCC(=O)OCOC1CCCn2c1nc(C)c(CCN1CCC(c3noc4cc(F)ccc34)CC1)c2=O (stereo not shown) [Compound 157]
2 | lower than that of the other compounds | delayed | CCCCCCCCCCCCCCCC(=O)OC1CCCn2c1nc(C)c(CCN1CCC(c3noc4cc(F)ccc34)CC1)c2=O (stereo not shown) [PP, Paliperidone Palmitate]
